Ends that are not written are not given here.
Tests used:
[1] = tested on: Prevotella intermedia; assay: Antimicrobial experiment, liquid dilution method, colony count; format: cell-based
Procedure: In order to determine the effect of the composition containing the antimicrobial peptide, an antimicrobial experiment was conducted according to the liquid dilution method. Prevotella intermedia, which is a bacterium causative of periodontal disease, was cultured in Tryptic soy broth. The above strain was cultured until the absorbance at 620 nm reached 1, and then the cells were collected and used in the experiment. The cells were diluted with PBS, bacteria were plated at 10^5-10^7/mL on a tryptic soy agar (TSA) plate, and incubated at 37° C. for 24 hours. In order to measure the antimicrobial activity of the peptides using a liquid dilution method, 1 ml of distilled water was added to a microtube, 10 µl of diluted bacterial solution was added thereto and 50 μl of the product was plated on a plate medium which was used as a control group.
After treatment with 50 μg/ml and 100 μg/ml of the peptide of SEQ ID NO: […] and 100 μg/ml of the peptide of SEQ ID NO: 2 at 37° C. for 1 hour, 50 μl of each of the product was plated and the number of colonies that formed was counted. In addition, the antimicrobial activity of the composition of Example 1, a composition containing the composition of Example 1 and the peptide of SEQ ID NO: 1, and a composition containing the composition of Example 1 and the peptide of SEQ ID NO: 2 was measured in the same manner as above.

[2] = Test of lipopolysaccharide removal effect of nonionic surfactants; settings: compared with other nonionic surfactants (polyoxyethylene, Tween series, span series)
Source text: Octyl phenol ethoxylate (C14H22O (C2H4O)n) is a nonionic surfactant, has a hydrophilic polyethylene oxide group and a hydrophobic 4-(1,1,3,3-tetramethylbutyl)-phenyl group, and is widely used as a detergent in the biochemical field. In immunostaining, octyl phenol ethoxylate permeabilizes the cell membrane at a concentration of 0.1 to 0.5%, and permeabilizes the cell wall of bacteria at a concentration of 1%. In the present invention, octyl phenol ethoxylate has an effect of removing lipopolysaccharide (LPS). Other nonionic surfactants widely used in this technical field include polyoxyethylene, Tween series, span series and the like.

Substance | antimicrobial activity ([1]; among peptides of SEQ ID NO: 1 to SEQ ID NO: 4) | antimicrobial activity of peptide (colonies formed) ([1]; peptide at 100 μg/ml, 37° C., 1 hour, FIG. 6) | lipopolysaccharide removal effect [2]
GKSST RGRKS CRRKK-NH2 (GKSSTRGRKSCRRKK-NH2) [peptide of SEQ ID NO: 2, antimicrobial peptide] | best antimicrobial activity | the highest | 
octyl phenol ethoxylate |  |  | greatest lipopolysaccharide removal effect

From patent publication US20210267731A1, “COMPOSITION FOR TREATING AND PREVENTING GINGIVOPERIODONTITIS OR PERI-IMPLANTITIS, AND INTERDENTAL BRUSH COATED WITH SAME” (NIBEC CO., LTD., priority 2018, published 2021)
